Reference: patent US10766882B2, “1,2-naphthoquinone based derivative and method of preparing the same” (YUNGJIN PHARM. CO., LTD., priority 2013, dated 2020)

Columns and labels:
[1] = biological target: NQO1 protein (Homo sapiens, UniProt P15559); test: NQO1 activity measurement (cytochrome C reduction); type: biochemical; conditions: 5 ng NQO1 protein, 200 μM NADH, 77 μM cytochrome C, 37° C., absorbance 550 nm for 10 minutes
Procedure: An enzyme reaction solution included 25 mM Tris/HCl (pH 7.4), 0.14% bovine serum albumin, 200 μM NADH, 77 μM cytochrome C, and 5 ng of NQO1 protein. Enzymatic reaction was initiated by adding NADH and performed at 37° C. In this regard, a reaction rate was measured by observing absorbance, which was increased due to reduction of cytochrome C, at 550 nm for 10 minutes and NQO1 activity was represented as an amount of reduced cytochrome C [nmol cytochrome C reduced/min/μg protein].
Extinction coefficient for cytochrome C:21.1 mmol/L/cm=21.1 μmol/ml/cm

[2] = tested on: Cells; test: Measurement of lactate change amount within cells; type: cell-based; conditions: PCA extract of cells, lactate measured from supernatant (Megazyme, K-LATE)
Procedure: Cells were treated with 400 μl of 6% PCA, and then collected and extracted. Centrifugation (13,000 rpm, 10 min) was performed. A precipitate was dried using a Speed-Vac and then a weight of dried precipitate was measured. A supernatant was neutralized using 400 μl of 1 M KOH and a final volume thereof was adjusted to 1 ml using 0.33 M KH2PO4/K2HPO4, pH 7.5. Centrifugation (13,000 rpm, 10 min) was performed and the amount of lactate was measured from a supernatant (Megazyme, K-LATE).

Sequence of NQO1 protein (P15559 whole entry, species assumed): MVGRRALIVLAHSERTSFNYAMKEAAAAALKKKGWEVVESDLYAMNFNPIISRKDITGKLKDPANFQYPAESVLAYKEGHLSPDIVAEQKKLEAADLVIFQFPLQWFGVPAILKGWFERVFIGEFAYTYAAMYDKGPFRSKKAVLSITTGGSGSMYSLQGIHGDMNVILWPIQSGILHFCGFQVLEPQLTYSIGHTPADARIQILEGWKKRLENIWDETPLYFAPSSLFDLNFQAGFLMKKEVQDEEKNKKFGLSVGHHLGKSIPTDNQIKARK

SMILES	NQO1 activity (5 μM, [nmol cytochrome C reduced/min/μg protein]) [1]	Lactate change amount within cells (nmol/mg cell) [2]
CCc1nc2c(n1C)-c1ccc(Cl)cc1C(=O)C2=O [Example 44, 7-chloro-2-ethyl-1-methyl-1H-naphtho[2,1-d]imidazole-4,5-dione]	43.4 nmol cytochrome C reduced/min/μg protein	9.5 nmol/mg cell
CC(C)(C)c1nc2c(n1Cc1ccccc1)C(=O)C(=O)c1cccnc1-2 [Example 46, 3-benzyl-2-tert-butyl-3H-imidazo[4,5-h]quinoline-4,5-dione]	160.1 nmol cytochrome C reduced/min/μg protein	8.9 nmol/mg cell
CCc1nc2c([nH]1)C(=O)C(=O)c1cc(NCc3ccc(F)cc3)ccc1-2 [Example 47]	41.0 nmol cytochrome C reduced/min/μg protein	5.9 nmol/mg cell
CC(C)(C)OC(=O)N(Cc1nc2c([nH]1)C(=O)C(=O)c1ccccc1-2)c1ccccc1 [Example 48]	59.8 nmol cytochrome C reduced/min/μg protein	5.1 nmol/mg cell
O=C1C(=O)c2[nH]c(CNc3ccccc3)nc2-c2ccccc21 [Example 49]	128.4 nmol cytochrome C reduced/min/μg protein	5.2 nmol/mg cell
O=C1C(=O)c2[nH]c(COc3ccccc3)nc2-c2ccccc21 [Example 78]	81.7 nmol cytochrome C reduced/min/μg protein	8.0 nmol/mg cell
